Reference: patent publication US12194124B2, “Personal care compositions for treating odor causing bacteria and methods for the same” (Colgate-Palmolive Company, priority 2019, dated 2025)

Test system: S. Epidermidis
Test: Growth inhibition assay in 96-well plate, optical density of S. Epidermidis
Format: cell-based, Staphylococcus epidermidis
Description: The efficacy of 2-butyl octanol for selectively promoting, inhibiting, reducing, and/or treating bacterial growth was evaluated. Particularly, the efficacy of 2-butyl octanol for selectively promoting, inhibiting, reducing, and/or treating bacterial growth of Corynebacterium and Staphylococcus was evaluated. To evaluate the efficacy, an active solution was prepared by emulsifying 2-butyl octanol with a nonionic surfactant, namely, Polysorbate 80. The active solution included the 2-butyl octanol and the Polysorbate 80 in a ratio of about 83:17. Both positive controls (including no active solution) and negative controls (including no bacteria) were also prepared.
A 96-well plate was utilized to evaluate the growth of the respective bacteria at varying dilutions. Each of the wells of a 96-well plate was aseptically filled with about 100 μL of Tryptic Soy Broth (TSB). In the first well of each row, about 100 μL of either the active solution (including the 2-butyl octanol and Polysorbate 80) or the desired solvent for the respective positive and negative controls was added to thereby provide a total of about 200 μL in the first well of the each respective row. A multi-channel pipette was then utilized to prepare a two-fold dilution in each column. Specifically, a multi-channel pipette set to about 100 μL was utilized to mix and transfer about 100 μL of the 200 μL from the wells of the first column to the respective wells of a subsequent column. This was repeated for each of the remaining eleven columns. About 100 μL of the twelfth column was removed, thereby leaving about 100 μL in each of the 96 wells. […] Specifically, a phosphate buffered saline (PBS) was utilized for the negative control. About 100 μL of the respective bacteria adjusted to 0.1 optical density (OD) bacteria was added to all other wells. The well plate was then incubated overnight at about 37° C. in a growth inhibition assay machine. Measurements were taken at about one hour increments.

How did the “Measured Optical Density of S. Epidermidis” value (shortened to “Measured Optical Density”) (0.02% 2-Butyl Octanol, 1 Hour) turn out when `CCCCCCC(CO)CCCC` (stereo not shown) [2-butyl octanol, 2-butyl-1-octanol] was run?
Its value is 0.07.

What about the “Measured Optical Density” value (0.02% 2-Butyl Octanol, 2 Hour) of the same compound?
The value was 0.327.

What about the “Measured Optical Density” value (0.02% 2-Butyl Octanol, 3 Hour) of the same compound?
Its value is 0.519.

And the “Measured Optical Density” value (0.02% 2-Butyl Octanol, 4 Hour)?
The value was 0.561.

And the “Measured Optical Density” value (0.02% 2-Butyl Octanol, 5 Hour)?
The value was 0.548.

What about the “Measured Optical Density” value (0.02% 2-Butyl Octanol, 6 Hour) of the same compound?
Its value is 0.564.

What about the “Measured Optical Density” value (0.02% 2-Butyl Octanol, 7 Hour) of the same compound?
Its value is 0.586.

What about the “Measured Optical Density” value (0.02% 2-Butyl Octanol, 8 Hour) of the same compound?
The value was 0.593.

And the “Measured Optical Density” value (0.02% 2-Butyl Octanol, 9 Hour)?
Its value is 0.602.

And the “Measured Optical Density” value (0.02% 2-Butyl Octanol, 10 Hour)?
The value was 0.623.

What about the “Measured Optical Density” value (0.02% 2-Butyl Octanol, 11 Hour) of the same compound?
Its value is 0.652.

What about the “Measured Optical Density” value (0.02% 2-Butyl Octanol, 12 Hour) of the same compound?
The value was 0.651.

And the “Measured Optical Density” value (0.02% 2-Butyl Octanol, 13 Hour)?
The value was 0.66.

What about the “Measured Optical Density” value (0.02% 2-Butyl Octanol, 14 Hour) of the same compound?
Its value is 0.689.

And the “Measured Optical Density” value (0.02% 2-Butyl Octanol, 15 Hour)?
The value was 0.809.

And the “Measured Optical Density” value (0.02% 2-Butyl Octanol, 16 Hour)?
Its value is 0.893.

And the “Measured Optical Density” value (0.02% 2-Butyl Octanol, 17 Hour)?
The value was 0.951.

What about the “Measured Optical Density” value (0.02% 2-Butyl Octanol, 18 Hour) of the same compound?
The value was 0.97.

What about the “Measured Optical Density” value (0.04% 2-Butyl Octanol, 1 Hour) of the same compound?
The value was 0.088.

What about the “Measured Optical Density” value (0.04% 2-Butyl Octanol, 2 Hour) of the same compound?
The value was 0.351.

What about the “Measured Optical Density” value (0.04% 2-Butyl Octanol, 3 Hour) of the same compound?
The value was 0.55.

What about the “Measured Optical Density” value (0.04% 2-Butyl Octanol, 4 Hour) of the same compound?
The value was 0.583.

What about the “Measured Optical Density” value (0.04% 2-Butyl Octanol, 5 Hour) of the same compound?
The value was 0.578.

What about the “Measured Optical Density” value (0.04% 2-Butyl Octanol, 6 Hour) of the same compound?
Its value is 0.592.

And the “Measured Optical Density” value (0.04% 2-Butyl Octanol, 7 Hour)?
Its value is 0.613.

What about the “Measured Optical Density” value (0.04% 2-Butyl Octanol, 8 Hour) of the same compound?
Its value is 0.64.

What about the “Measured Optical Density” value (0.04% 2-Butyl Octanol, 9 Hour) of the same compound?
The value was 0.651.

What about the “Measured Optical Density” value (0.04% 2-Butyl Octanol, 10 Hour) of the same compound?
The value was 0.664.

And the “Measured Optical Density” value (0.04% 2-Butyl Octanol, 11 Hour)?
Its value is 0.666.

What about the “Measured Optical Density” value (0.04% 2-Butyl Octanol, 12 Hour) of the same compound?
The value was 0.656.

What about the “Measured Optical Density” value (0.04% 2-Butyl Octanol, 13 Hour) of the same compound?
Its value is 0.652.

And the “Measured Optical Density” value (0.04% 2-Butyl Octanol, 14 Hour)?
Its value is 0.675.

And the “Measured Optical Density” value (0.04% 2-Butyl Octanol, 15 Hour)?
Its value is 0.756.

And the “Measured Optical Density” value (0.04% 2-Butyl Octanol, 16 Hour)?
The value was 0.825.

And the “Measured Optical Density” value (0.04% 2-Butyl Octanol, 17 Hour)?
The value was 0.915.

What about the “Measured Optical Density” value (0.04% 2-Butyl Octanol, 18 Hour) of the same compound?
Its value is 0.961.

What about the “Measured Optical Density” value (0.08% 2-Butyl Octanol, 1 Hour) of the same compound?
The value was 0.111.

What about the “Measured Optical Density” value (0.08% 2-Butyl Octanol, 2 Hour) of the same compound?
Its value is 0.482.

And the “Measured Optical Density” value (0.08% 2-Butyl Octanol, 3 Hour)?
The value was 0.688.

What about the “Measured Optical Density” value (0.08% 2-Butyl Octanol, 4 Hour) of the same compound?
The value was 0.703.

And the “Measured Optical Density” value (0.08% 2-Butyl Octanol, 5 Hour)?
The value was 0.684.

What about the “Measured Optical Density” value (0.08% 2-Butyl Octanol, 6 Hour) of the same compound?
The value was 0.677.

What about the “Measured Optical Density” value (0.08% 2-Butyl Octanol, 7 Hour) of the same compound?
The value was 0.662.

What about the “Measured Optical Density” value (0.08% 2-Butyl Octanol, 8 Hour) of the same compound?
The value was 0.652.

And the “Measured Optical Density” value (0.08% 2-Butyl Octanol, 9 Hour)?
The value was 0.653.

What about the “Measured Optical Density” value (0.08% 2-Butyl Octanol, 10 Hour) of the same compound?
Its value is 0.658.

And the “Measured Optical Density” value (0.08% 2-Butyl Octanol, 11 Hour)?
Its value is 0.646.

And the “Measured Optical Density” value (0.08% 2-Butyl Octanol, 12 Hour)?
Its value is 0.63.

And the “Measured Optical Density” value (0.08% 2-Butyl Octanol, 13 Hour)?
The value was 0.632.

And the “Measured Optical Density” value (0.08% 2-Butyl Octanol, 14 Hour)?
The value was 0.662.

What about the “Measured Optical Density” value (0.08% 2-Butyl Octanol, 15 Hour) of the same compound?
The value was 0.741.

And the “Measured Optical Density” value (0.08% 2-Butyl Octanol, 16 Hour)?
The value was 0.795.

What about the “Measured Optical Density” value (0.08% 2-Butyl Octanol, 17 Hour) of the same compound?
Its value is 0.883.

And the “Measured Optical Density” value (0.08% 2-Butyl Octanol, 18 Hour)?
Its value is 0.943.

And the “Measured Optical Density” value (0.16% 2-Butyl Octanol, 1 Hour)?
Its value is 0.148.

What about the “Measured Optical Density” value (0.16% 2-Butyl Octanol, 2 Hour) of the same compound?
Its value is 0.564.

What about the “Measured Optical Density” value (0.16% 2-Butyl Octanol, 3 Hour) of the same compound?
The value was 0.76.

And the “Measured Optical Density” value (0.16% 2-Butyl Octanol, 4 Hour)?
Its value is 0.786.

What about the “Measured Optical Density” value (0.16% 2-Butyl Octanol, 5 Hour) of the same compound?
The value was 0.778.

And the “Measured Optical Density” value (0.16% 2-Butyl Octanol, 6 Hour)?
The value was 0.764.

And the “Measured Optical Density” value (0.16% 2-Butyl Octanol, 7 Hour)?
Its value is 0.757.

And the “Measured Optical Density” value (0.16% 2-Butyl Octanol, 8 Hour)?
Its value is 0.741.

What about the “Measured Optical Density” value (0.16% 2-Butyl Octanol, 9 Hour) of the same compound?
Its value is 0.729.

What about the “Measured Optical Density” value (0.16% 2-Butyl Octanol, 10 Hour) of the same compound?
Its value is 0.726.

What about the “Measured Optical Density” value (0.16% 2-Butyl Octanol, 11 Hour) of the same compound?
Its value is 0.718.

And the “Measured Optical Density” value (0.16% 2-Butyl Octanol, 12 Hour)?
The value was 0.702.

And the “Measured Optical Density” value (0.16% 2-Butyl Octanol, 13 Hour)?
The value was 0.695.

And the “Measured Optical Density” value (0.16% 2-Butyl Octanol, 14 Hour)?
The value was 0.702.

What about the “Measured Optical Density” value (0.16% 2-Butyl Octanol, 15 Hour) of the same compound?
Its value is 0.764.

And the “Measured Optical Density” value (0.16% 2-Butyl Octanol, 16 Hour)?
Its value is 0.801.

What about the “Measured Optical Density” value (0.16% 2-Butyl Octanol, 17 Hour) of the same compound?
The value was 0.844.

And the “Measured Optical Density” value (0.16% 2-Butyl Octanol, 18 Hour)?
Its value is 0.874.

What about the “growth of S. epidermidis” value (2-butyl octanol about 0.02 weight % to about 5.2 weight %) of the same compound?
Its value is “did not inhibit the growth of and/or promoted the growth of”.

And the “Measured Optical Density” value (5.2% 2-Butyl Octanol, 1 Hour)?
The value was 0.257.

And the “Measured Optical Density” value (5.2% 2-Butyl Octanol, 2 Hour)?
Its value is 0.501.

And the “Measured Optical Density” value (5.2% 2-Butyl Octanol, 3 Hour)?
The value was 0.583.

And the “Measured Optical Density” value (5.2% 2-Butyl Octanol, 4 Hour)?
The value was 0.624.

And the “Measured Optical Density” value (5.2% 2-Butyl Octanol, 5 Hour)?
The value was 0.665.

What about the “Measured Optical Density” value (5.2% 2-Butyl Octanol, 6 Hour) of the same compound?
Its value is 0.723.

What about the “Measured Optical Density” value (5.2% 2-Butyl Octanol, 7 Hour) of the same compound?
Its value is 0.855.

What about the “Measured Optical Density” value (5.2% 2-Butyl Octanol, 8 Hour) of the same compound?
Its value is 0.918.

What about the “Measured Optical Density” value (5.2% 2-Butyl Octanol, 9 Hour) of the same compound?
The value was 0.994.

What about the “Measured Optical Density” value (5.2% 2-Butyl Octanol, 10 Hour) of the same compound?
The value was 1.052.

And the “Measured Optical Density” value (5.2% 2-Butyl Octanol, 11 Hour)?
The value was 1.067.

What about the “Measured Optical Density” value (5.2% 2-Butyl Octanol, 12 Hour) of the same compound?
Its value is 1.066.

What about the “Measured Optical Density” value (5.2% 2-Butyl Octanol, 13 Hour) of the same compound?
The value was 1.081.

What about the “Measured Optical Density” value (5.2% 2-Butyl Octanol, 14 Hour) of the same compound?
The value was 1.105.

What about the “Measured Optical Density” value (5.2% 2-Butyl Octanol, 15 Hour) of the same compound?
The value was 1.118.

And the “Measured Optical Density” value (5.2% 2-Butyl Octanol, 16 Hour)?
The value was 1.127.

What about the “Measured Optical Density” value (5.2% 2-Butyl Octanol, 17 Hour) of the same compound?
The value was 1.142.

And the “Measured Optical Density” value (5.2% 2-Butyl Octanol, 18 Hour)?
The value was 1.127.
